The record followed here is PMC11203436, “Hell’s Gate Globin-I from Methylacidiphilum infernorum Displays a Unique Temperature-Independent pH Sensing Mechanism Utililized a Lipid-Induced Conformational Change” (International Journal of Molecular Sciences, 2024).

In assay [1] the target is T1, Hell's Gate globin-I (HGb-I) (Candidatus Methylacidiphilum infernorum, UniProt B3DUZ7).
T1 construct: gene hmp
T1 sequence (B3DUZ7 1-133): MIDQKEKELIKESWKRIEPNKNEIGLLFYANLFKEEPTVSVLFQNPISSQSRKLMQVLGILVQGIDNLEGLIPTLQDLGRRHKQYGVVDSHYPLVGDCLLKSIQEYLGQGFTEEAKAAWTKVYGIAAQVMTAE
Nature of the assay: stopped-flow CO binding kinetics; optical spectrum of ferrous-CO form.

Assay [2] concerns the target T1, Hell's Gate globin-I (HGb-I). Description: optical (absorbance) titration of ferric protein at pH […] °C; supported by EPR and stopped flow. The format is binding.
Assay [3] shares this target. Description: optical (absorbance) titration of ferric protein at pH […] °C. Format: binding.

The term Kd denotes the constant that tells how readily two partners part at equilibrium. The low end stands for tighter binding, the high end for weaker binding.

In the case of `[C-]#[O+]` [carbon monoxide], the “stopped-flow CO binding kinetics; optical spectrum of ferrous-CO form” value in assay [1] was “In the absence of oleate, the CO binding to the hexacoordinate form is slow and reaches a plateau”.

Consider `CCCCCCCC/C=C\CCCCCCCC(=O)O` [oleate], for which, in assay [2], the Kd came out at 0.73 µM.

`CCCCCCCCCCCCCCCC(=O)O` [palmitate] came in with a dissociation constant (Kd) in assay [3] of 9.88 µM.
